Here are results for seven compounds from article PMC7668297 (Journal of medicinal chemistry, 2020).

For one series, the system named is A549 cells. As to the kind of experiment: cells. The settings on record: Homo sapiens, A549, 72 h, read-out: Cell proliferation IC50 ± SD.
Another series deals with MCF7 cells. Kind of series: cells. The settings on record: Homo sapiens, MCF7, 72 h, read-out: Cell proliferation IC50 ± SD.
The subject of a further series is A375 cells. Kind of series: cells. The settings on record: Homo sapiens, A-375, 72 h, read-out: Cell proliferation IC50 ± SD.
Another series relates to HeLa cells. Kind of series: cells. The conditions noted are these: Homo sapiens, 72 h, read-out: Cell proliferation IC50 ± SD.
In another series the test system is G-361 cells. Kind of series: cells. The conditions noted are these: Homo sapiens, G-361, 72 h, read-out: Cell proliferation IC50 ± SD.
In another series the target is hERG channel (Homo sapiens, UniProt Q12809). As to the kind of experiment: Off-target safety profiling, hERG channel. The settings on record: tested at 2 µM. For orientation: The hERG channel carries a current that helps repolarise heart muscle cells.
Series [1] has as its system H2AX phosphorylation in HeLa cells. As to the kind of experiment: Immunodetection of H2AX phosphorylation. Type of series: cell-based, human. The conditions noted are these: 90 minutes, at IC50 concentration.
In a further series the target is human topoIIβ (Homo sapiens, UniProt Q02880). Kind of series: DNA relaxation catalyzed by human topoIIβ. Type of series: biochemical.
The conditions of series [2]: mouse, in vivo, ip, 10 mg/kg.
In series [3] the target is T1, human topoIIα (Homo sapiens, UniProt P11388). Kind of series: DNA relaxation catalyzed by human topoIIα. Type of series: biochemical. The settings on record: ratio of DNA relaxation IC50 values.
The next series has as its system relaxed pBR322 DNA. Kind of series: DNA intercalation. The conditions noted are these: 0-25 µM compound. Type of series: binding.
A further series concerns set of 47 proteins. As to the kind of experiment: Off-target safety profiling. The conditions noted are these: tested at 2 µM.
The target in series [4] is T1, human topoIIα. Kind of series: ATP hydrolysis. Type of series: biochemical. The conditions noted are these: 0-25 µM compound.
The target of series [5] is T1, human topoIIα. As to the kind of experiment: DNA cleavage assay. The conditions noted are these: 0-200 µM compound. Type of series: biochemical.

Entries after “also recorded” stand apart in the source; their conditions may differ.

For the compound `NC1CCc2nc(-c3ccncc3)nc(Nc3cccc(F)c3)c2C1` (stereo not shown) [Compound 1, N4-(3-fluorophenyl)-2-(4-pyridyl)-5,6,7,8-tetrahydroquinazoline-4,6-diamine], the IC50 in the series on A549 cells was 19.4 ± 1.8 µM; in the series with MCF7 cells, 13.9 ± 2.3 µM; in the series on A375 cells, 9.9 ± 0.1 µM; in the series with HeLa cells, 17 ± 1.9 µM; in the series on G-361 cells, 1.4 ± 0.4 µM.
Regarding `N[C@H]1CCc2nc(-c3ccncc3)nc(Nc3cccc(F)c3)c2C1` [Compound 3, (6R)-N4-(3-fluorophenyl)-2-(4-pyridyl)-5,6,7,8-tetrahydroquinazoline-4,6-diamine], the IC50 with A549 cells was 23.3 ± 2.3 µM; with MCF7 cells, 14.2 ± 2.5 µM; in the series on A375 cells it was 10.7 ± 0.1 µM; in the series with HeLa cells it was 17.1 ± 3.2 µM.
Take `N[C@@H]1CCc2nc(-c3ccncc3)nc(Nc3cccc(F)c3)c2C1` [Compound 4, (6S)-N4-(3-fluorophenyl)-2-(4-pyridyl)-5,6,7,8-tetrahydroquinazoline-4,6-diamine]: the IC50 in the series with A549 cells was 17.8 ± 0.6 µM; in the series with MCF7 cells, 16.2 ± 2.6 µM; in the series on A375 cells, 10.8 ± 0.1 µM; in the series with HeLa cells it was 21.8 ± 4.6 µM; in the series with G-361 cells it was 1.8 ± 0.6 µM.
For `NC1CCc2nc(-c3ccncc3)nc(Nc3ccc(F)cc3)c2C1` (stereo not shown) [Compound 10, N4-(4-fluorophenyl)-2-(4-pyridyl)-5,6,7,8-tetrahydroquinazoline-4,6-diamine] the same measures were 22.9 ± 6.5 µM, 16 ± 0.5 µM, 12.3 ± 1.8 µM, 20.8 ± 4.5 µM and 3 ± 0.7 µM.
For `COc1cccc(Nc2nc(-c3ccncc3)nc3c2CC(N)CC3)c1` (stereo not shown) [Compound 11, N4-(3-methoxyphenyl)-2-(4-pyridyl)-5,6,7,8-tetrahydroquinazoline-4,6-diamine], in that order: 18 ± 0.1 µM, 15.8 ± 1.4 µM, 15.1 ± 4.8 µM, 17.2 ± 2.6 µM and 6.6 ± 3.1 µM.
Consider `CN(C)c1ccc(Nc2nc(-c3ccncc3)nc3c2CC(N)CC3)cc1` (stereo not shown) [Compound 14, N4-[4-(dimethylamino)phenyl]-2-(4-pyridyl)-5,6,7,8-tetrahydroquinazoline-4,6-diamine], for which, on hERG channel, the “activity vs the hERG channel” value is “no noteworthy activity”. For the same compound, the IC50 was 17.1 ± 8.7 µM in the series with A549 cells; 15.8 ± 1.3 µM in the series on MCF7 cells; ~100 µM at human topoIIβ; 12.6 ± 0.7 µM in the series on A375 cells; 38.2 ± 9.1 µM in the series on HeLa cells; 8.1 ± 2.9 µM with G-361 cells. The “phosphorylation of H2AX (reporter of DNA damage)” value in series [1] is “did not induce the phosphorylation of H2AX”. Further, the brain penetration result in [2] is reported as “able to reach the brain”. In addition, the “specificity for topoIIα over topoIIβ” value on human topoIIα [3] is ~ 50 fold. In the series with relaxed pBR322 DNA, the DNA intercalation entry is given as “did not show this behavior; also recorded: does not intercalate into DNA”. Further, the “off-target activity (agonist and antagonist) on 47 proteins” value with set of 47 proteins was “no noteworthy activity”. In addition, the “inhibition of topoIIα-catalyzed ATP hydrolysis” value is “none” on human topoIIα [4] (in the absence of DNA) and “little ability to inhibit” at human topoIIα [4] (in the presence of DNA). Further, the “ability to increase enzyme-mediated DNA cleavage” value on human topoIIα [5] is listed as “no ability to increase levels of enzyme-mediated DNA cleavage”.
As to `COc1cc([C@@H]2c3cc4c(cc3[C@@H](O[C@@H]3O[C@@H]5CO[C@@H](C)O[C@H]5[C@H](O)[C@H]3O)[C@H]3COC(=O)[C@H]23)OCO4)cc(OC)c1O` [Etoposide, etoposide, reference compound], the IC50 with A549 cells is 2.4 ± 2 µM; in the series with MCF7 cells it was 8.9 ± 1.6 µM; in the series with A375 cells, 0.5 ± 0.1 µM; in the series with G-361 cells, 3.8 ± 3 µM.
